Results on two compounds are retold here after patent US20100242139A1, “XENOHORMESIS BASED COMPOSITIONS AND METHODS” (President and Fellows of Harvard College, priority 2006, published 2010).

One assay has as its system FL5.12 cells. The assay can be described thus: growth of hematopoietic cell line FL5.12. It counts as cell-based. Particulars: 0.1, 1, 10 and 100 μM for 24 hours; in the presence of IL-3; Coulter counter. The source says:
Hematopoietic cell line FL5.12 cells were seed at equal density and grown in the presence of IL-3, a growth factor.

The target of a further assay is Pim-1(h) (Homo sapiens, UniProt P11309). The assay can be described thus: kinase panel activity, Pim-1(h). As to conditions: compound at 20 μM; vs reference with no compound. It is filed as biochemical.
Sequence of Pim-1(h) (P11309 whole entry): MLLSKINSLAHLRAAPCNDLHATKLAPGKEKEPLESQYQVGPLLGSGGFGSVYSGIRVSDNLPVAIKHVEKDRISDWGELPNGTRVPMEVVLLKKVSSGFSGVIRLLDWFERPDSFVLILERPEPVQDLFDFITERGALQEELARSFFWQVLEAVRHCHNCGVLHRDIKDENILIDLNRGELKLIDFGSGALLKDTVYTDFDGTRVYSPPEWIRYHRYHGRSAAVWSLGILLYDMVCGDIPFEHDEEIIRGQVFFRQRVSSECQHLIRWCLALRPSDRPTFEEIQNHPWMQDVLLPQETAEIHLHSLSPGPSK
The next assay has as its target EphB2(h) (Homo sapiens, UniProt P29323). Briefly: kinase panel activity, EphB2(h). It is filed as biochemical. Particulars: compound at 20 μM; vs reference with no compound.
Another assay deals with Aurora-A(h) (Homo sapiens, UniProt O14965). Briefly: kinase panel activity, Aurora-A(h). It counts as biochemical. As to conditions: compound at 20 μM; vs reference with no compound.
Sequence of Aurora-A(h) (O14965 whole entry): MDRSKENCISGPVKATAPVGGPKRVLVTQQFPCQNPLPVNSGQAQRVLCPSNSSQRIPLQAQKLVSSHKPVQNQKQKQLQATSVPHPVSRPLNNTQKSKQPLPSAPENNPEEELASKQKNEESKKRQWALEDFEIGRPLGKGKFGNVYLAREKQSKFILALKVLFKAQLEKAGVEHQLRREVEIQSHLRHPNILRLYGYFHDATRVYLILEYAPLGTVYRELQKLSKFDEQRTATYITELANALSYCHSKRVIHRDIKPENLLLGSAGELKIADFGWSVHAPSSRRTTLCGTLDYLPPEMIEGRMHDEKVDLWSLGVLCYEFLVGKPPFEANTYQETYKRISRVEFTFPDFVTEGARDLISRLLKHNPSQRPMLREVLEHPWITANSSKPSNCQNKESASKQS
For the next assay, the target named is GSK3β(h) (Homo sapiens, UniProt P49841). The assay can be described thus: kinase panel activity, GSK3β(h). It is filed as biochemical. Particulars: compound at 20 μM; vs reference with no compound.
Sequence of GSK3β(h) (P49841 whole entry): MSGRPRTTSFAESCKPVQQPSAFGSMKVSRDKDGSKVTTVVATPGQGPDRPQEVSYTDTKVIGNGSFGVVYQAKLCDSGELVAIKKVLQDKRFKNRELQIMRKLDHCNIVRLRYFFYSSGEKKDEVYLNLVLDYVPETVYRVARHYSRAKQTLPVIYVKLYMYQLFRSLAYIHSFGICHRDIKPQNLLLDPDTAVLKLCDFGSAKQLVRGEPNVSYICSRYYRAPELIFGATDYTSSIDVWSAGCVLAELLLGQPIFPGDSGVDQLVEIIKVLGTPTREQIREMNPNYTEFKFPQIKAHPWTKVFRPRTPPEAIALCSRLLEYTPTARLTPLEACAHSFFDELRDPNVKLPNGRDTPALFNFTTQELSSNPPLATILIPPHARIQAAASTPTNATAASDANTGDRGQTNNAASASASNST
A further assay has as its system IRS-1. The assay can be described thus: IRS-1 expression and phosphorylation on a high calorie diet. It is filed as in vivo. From the text: In addition, IRS-1 is phosphorylated at serine 307 (referred to PIRS-1).
For the next assay, the target named is Ros(h) (Homo sapiens, UniProt P08922). The assay can be described thus: kinase panel activity, Ros(h). It is filed as biochemical. As to conditions: compound at 20 μM; vs reference with no compound.
Sequence of Ros(h) (P08922 28-2347): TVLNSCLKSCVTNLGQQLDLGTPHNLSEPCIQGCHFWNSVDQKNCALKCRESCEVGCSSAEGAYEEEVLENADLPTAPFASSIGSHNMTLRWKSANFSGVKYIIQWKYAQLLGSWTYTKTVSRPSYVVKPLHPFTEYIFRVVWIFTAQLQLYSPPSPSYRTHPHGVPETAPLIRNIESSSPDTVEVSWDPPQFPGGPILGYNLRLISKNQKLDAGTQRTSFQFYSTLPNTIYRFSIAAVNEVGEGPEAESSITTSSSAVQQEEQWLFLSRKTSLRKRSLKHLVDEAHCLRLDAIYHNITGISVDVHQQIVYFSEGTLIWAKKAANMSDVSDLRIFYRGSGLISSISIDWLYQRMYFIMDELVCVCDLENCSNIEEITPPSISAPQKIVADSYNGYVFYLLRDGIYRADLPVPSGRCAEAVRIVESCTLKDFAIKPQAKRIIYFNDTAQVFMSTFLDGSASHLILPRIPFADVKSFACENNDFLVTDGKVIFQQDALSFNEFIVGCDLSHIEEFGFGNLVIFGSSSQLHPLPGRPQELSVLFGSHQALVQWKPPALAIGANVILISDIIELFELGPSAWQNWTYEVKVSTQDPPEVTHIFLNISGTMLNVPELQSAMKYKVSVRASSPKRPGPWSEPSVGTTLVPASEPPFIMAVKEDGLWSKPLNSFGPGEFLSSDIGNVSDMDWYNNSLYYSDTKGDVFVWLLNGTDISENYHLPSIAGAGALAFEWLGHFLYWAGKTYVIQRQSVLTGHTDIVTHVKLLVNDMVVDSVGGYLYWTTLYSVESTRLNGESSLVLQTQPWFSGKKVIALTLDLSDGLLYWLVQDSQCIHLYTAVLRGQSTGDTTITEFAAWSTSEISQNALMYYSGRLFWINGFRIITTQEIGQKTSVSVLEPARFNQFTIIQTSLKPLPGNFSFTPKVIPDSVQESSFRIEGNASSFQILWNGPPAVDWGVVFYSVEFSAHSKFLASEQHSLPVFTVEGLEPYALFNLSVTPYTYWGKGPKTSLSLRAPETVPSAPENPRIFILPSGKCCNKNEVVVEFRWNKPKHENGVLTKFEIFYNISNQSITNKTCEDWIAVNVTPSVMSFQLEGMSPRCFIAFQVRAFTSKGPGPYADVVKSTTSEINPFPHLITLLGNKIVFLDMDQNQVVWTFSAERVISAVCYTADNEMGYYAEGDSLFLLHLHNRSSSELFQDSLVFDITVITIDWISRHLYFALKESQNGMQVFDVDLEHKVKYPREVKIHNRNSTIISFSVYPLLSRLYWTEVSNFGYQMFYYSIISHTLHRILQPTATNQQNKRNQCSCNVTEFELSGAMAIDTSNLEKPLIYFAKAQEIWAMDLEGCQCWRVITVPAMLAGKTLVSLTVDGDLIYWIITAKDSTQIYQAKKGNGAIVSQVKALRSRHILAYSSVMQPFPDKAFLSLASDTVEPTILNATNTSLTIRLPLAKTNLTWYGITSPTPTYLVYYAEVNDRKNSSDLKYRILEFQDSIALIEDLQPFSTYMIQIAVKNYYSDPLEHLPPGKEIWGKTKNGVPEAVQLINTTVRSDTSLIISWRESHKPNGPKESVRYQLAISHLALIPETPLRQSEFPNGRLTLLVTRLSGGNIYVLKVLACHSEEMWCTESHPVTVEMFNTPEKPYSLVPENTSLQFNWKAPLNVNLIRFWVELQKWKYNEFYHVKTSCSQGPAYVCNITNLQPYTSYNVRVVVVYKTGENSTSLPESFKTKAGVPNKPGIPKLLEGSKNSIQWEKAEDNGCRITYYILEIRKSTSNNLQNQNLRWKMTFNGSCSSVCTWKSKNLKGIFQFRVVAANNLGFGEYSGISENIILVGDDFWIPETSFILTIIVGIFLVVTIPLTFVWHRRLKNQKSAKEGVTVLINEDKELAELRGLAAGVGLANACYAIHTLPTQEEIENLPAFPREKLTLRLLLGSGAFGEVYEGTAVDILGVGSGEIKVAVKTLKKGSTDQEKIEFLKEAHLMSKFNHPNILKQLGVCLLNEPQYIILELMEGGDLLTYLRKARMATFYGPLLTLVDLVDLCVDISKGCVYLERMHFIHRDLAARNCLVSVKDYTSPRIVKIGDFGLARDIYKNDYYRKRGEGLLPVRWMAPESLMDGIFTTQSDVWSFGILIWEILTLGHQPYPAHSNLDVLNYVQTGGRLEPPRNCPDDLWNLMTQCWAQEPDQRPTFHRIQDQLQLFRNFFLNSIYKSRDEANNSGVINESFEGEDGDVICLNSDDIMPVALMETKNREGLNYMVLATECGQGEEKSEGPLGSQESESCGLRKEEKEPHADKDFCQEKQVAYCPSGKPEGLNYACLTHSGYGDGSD
Another assay has as its target PKCδ(h) (Homo sapiens, UniProt Q05655). The assay can be described thus: kinase panel activity, PKCδ(h). It counts as biochemical. Particulars: compound at 20 μM; vs reference with no compound.
Another assay deals with PKCθ(h) (Homo sapiens, UniProt Q04759). Briefly: kinase panel activity, PKCθ(h). It is filed as biochemical. Particulars: compound at 20 μM; vs reference with no compound.
The target of the next assay is Abl(T315I)(h) (Homo sapiens, UniProt P00519, T315I). Briefly: kinase panel activity, Abl(T315I)(h). It counts as biochemical. Particulars: compound at 20 μM; vs reference with no compound.
In the next assay the target is PAK3(h) (Homo sapiens, UniProt O75914). The assay can be described thus: kinase panel activity, PAK3(h). It counts as biochemical. Particulars: compound at 20 μM; vs reference with no compound.
Sequence of PAK3(h) (O75914 whole entry): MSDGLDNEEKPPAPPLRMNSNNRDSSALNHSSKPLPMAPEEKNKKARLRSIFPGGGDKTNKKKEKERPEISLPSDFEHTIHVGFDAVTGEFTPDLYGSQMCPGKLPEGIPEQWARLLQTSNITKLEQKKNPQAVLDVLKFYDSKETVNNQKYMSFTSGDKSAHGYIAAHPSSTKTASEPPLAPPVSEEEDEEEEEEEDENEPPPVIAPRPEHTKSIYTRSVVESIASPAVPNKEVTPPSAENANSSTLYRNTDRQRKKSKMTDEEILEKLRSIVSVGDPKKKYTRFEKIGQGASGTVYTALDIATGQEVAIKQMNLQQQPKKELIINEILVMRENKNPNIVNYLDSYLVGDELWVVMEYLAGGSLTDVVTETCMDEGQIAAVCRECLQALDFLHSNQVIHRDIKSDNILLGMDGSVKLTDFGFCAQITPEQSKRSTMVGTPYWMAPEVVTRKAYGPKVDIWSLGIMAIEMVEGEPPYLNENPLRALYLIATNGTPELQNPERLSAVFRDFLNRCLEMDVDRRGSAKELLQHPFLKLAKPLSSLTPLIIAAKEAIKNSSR
The target of the next assay is PKD2(h) (Homo sapiens, UniProt Q9BZL6). The assay can be described thus: kinase panel activity, PKD2(h). It counts as biochemical. Particulars: compound at 20 μM; vs reference with no compound.
Another assay deals with PKCγ(h) (Homo sapiens, UniProt P05129). The assay can be described thus: kinase panel activity, PKCγ(h). It counts as biochemical. As to conditions: compound at 20 μM; vs reference with no compound.
The target in a further assay is PKCζ(h) (Homo sapiens, UniProt Q05513). Briefly: kinase panel activity, PKCζ(h). It counts as biochemical. As to conditions: compound at 20 μM; vs reference with no compound.
The target in a further assay is Flt3(h) (Homo sapiens, UniProt P36888). The assay can be described thus: kinase panel activity, Flt3(h). It counts as biochemical. As to conditions: compound at 20 μM; vs reference with no compound.
A further assay addresses Abl(h) (Homo sapiens, UniProt P00519). The assay can be described thus: kinase panel activity, Abl(h). It is filed as biochemical. As to conditions: compound at 20 μM; vs reference with no compound.
The next assay addresses JAK2(h) (Homo sapiens, UniProt O60674). The assay can be described thus: kinase panel activity, JAK2(h). It is filed as biochemical. Particulars: compound at 20 μM; vs reference with no compound.
Another assay concerns the target PAK2(h) (Homo sapiens, UniProt Q13177). The assay can be described thus: kinase panel activity, PAK2(h). It counts as biochemical. Particulars: compound at 20 μM; vs reference with no compound.
The target of the next assay is PKCβI(h) (Homo sapiens, UniProt P05771). The assay can be described thus: kinase panel activity, PKCβI(h). It is filed as biochemical. As to conditions: compound at 20 μM; vs reference with no compound.

Structures are written as SMILES.

Sequence of EphB2(h) (P29323 19-1055): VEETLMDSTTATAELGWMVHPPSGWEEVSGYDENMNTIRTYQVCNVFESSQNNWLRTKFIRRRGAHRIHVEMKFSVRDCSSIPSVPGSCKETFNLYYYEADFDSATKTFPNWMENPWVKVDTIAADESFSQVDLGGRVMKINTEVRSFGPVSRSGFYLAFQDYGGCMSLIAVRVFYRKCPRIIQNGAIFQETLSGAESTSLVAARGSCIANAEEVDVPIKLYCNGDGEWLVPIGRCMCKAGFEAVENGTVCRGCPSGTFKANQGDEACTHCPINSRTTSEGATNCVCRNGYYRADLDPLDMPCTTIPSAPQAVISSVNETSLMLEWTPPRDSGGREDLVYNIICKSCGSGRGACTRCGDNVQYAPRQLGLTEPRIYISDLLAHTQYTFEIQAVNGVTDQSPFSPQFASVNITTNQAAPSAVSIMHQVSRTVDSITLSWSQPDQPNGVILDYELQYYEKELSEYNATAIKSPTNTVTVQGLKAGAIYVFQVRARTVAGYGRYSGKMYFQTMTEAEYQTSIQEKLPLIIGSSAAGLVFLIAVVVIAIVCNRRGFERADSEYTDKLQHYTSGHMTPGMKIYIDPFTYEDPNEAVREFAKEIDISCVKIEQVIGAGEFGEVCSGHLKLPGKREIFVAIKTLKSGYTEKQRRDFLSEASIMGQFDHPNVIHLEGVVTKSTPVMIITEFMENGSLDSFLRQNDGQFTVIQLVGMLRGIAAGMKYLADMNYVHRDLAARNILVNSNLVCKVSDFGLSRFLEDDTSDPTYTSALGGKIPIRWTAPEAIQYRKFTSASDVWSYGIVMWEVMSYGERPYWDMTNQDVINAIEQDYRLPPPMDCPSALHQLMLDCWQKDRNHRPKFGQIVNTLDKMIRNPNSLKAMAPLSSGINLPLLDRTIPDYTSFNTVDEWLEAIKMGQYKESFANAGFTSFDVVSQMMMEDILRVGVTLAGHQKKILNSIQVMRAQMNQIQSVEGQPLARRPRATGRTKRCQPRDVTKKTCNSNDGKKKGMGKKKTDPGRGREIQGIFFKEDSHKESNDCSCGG

`Oc1ccc(C=Cc2cc(O)cc(O)c2)cc1` [resveratrol, 3,5,4′-trihydroxystilbene]: in the assay on FL5.12 cells, the “inhibition of FL5.12 cell growth” value is listed as “dose dependent inhibition”. The “percent activity of Pim-1(h)” value on Pim-1(h) is 6%. Also, on EphB2(h), the “percent activity of EphB2(h)” value turned out to be 113%. The “percent activity of Aurora-A(h)” value on Aurora-A(h) was 65%. Also, the “percent activity of GSK3β(h)” value on GSK3β(h) is 92%. In addition, the “expression level of IRS-1” value in the assay with IRS-1 (approximately 22 mg/kg resveratrol added to diet) is given as “significantly reduced”. The “proportion of phosphorylated IRS-1 (PIRS-1, serine 307)” value with IRS-1 (resveratrol treatment) is reported as “increases”. Besides, the “percent activity of Ros(h)” value at Ros(h) was 102%.

Consider `O=C(O)[C@H]1O[C@@H](Oc2ccc(/C=C/c3cc(O)cc(O)c3)cc2)[C@H](O)[C@@H](O)[C@@H]1O` [Res 4′-Gluc, resveratrol-4-glucuronide], for which, on PKCδ(h), the “percent activity of PKCδ(h)” value was found to be 110%. Also, at PKCθ(h), the “percent activity of PKCθ(h)” value is 103%. Also, the “percent activity of Abl(T315I)(h)” value on Abl(T315I)(h) was determined as 93%. Also, the “percent activity of PAK3(h)” value at PAK3(h) turned out to be 75%. Moreover, the “percent activity of Pim-1(h)” value on Pim-1(h) turned out to be 31%. For the same compound, the “percent activity of PKD2(h)” value at PKD2(h) is listed as 113%. Also, the “percent activity of PKCγ(h)” value at PKCγ(h) turned out to be 77%. Moreover, at PKCζ(h), the “percent activity of PKCζ(h)” value came out at 104%. Moreover, on Flt3(h), the “percent activity of Flt3(h)” value was 48%. At EphB2(h), the “percent activity of EphB2(h)” value was 109%. Moreover, the “percent activity of Aurora-A(h)” value on Aurora-A(h) was 33%. Besides, the “percent activity of Abl(h)” value at Abl(h) was 97%. In addition, the “percent activity of GSK3β(h)” value at GSK3β(h) is on record as 88%. Further, at JAK2(h), the “percent activity of JAK2(h)” value is given as 95%. Further, the “percent activity of Ros(h)” value at Ros(h) came out at 105%. At PAK2(h), the “percent activity of PAK2(h)” value turned out to be 105%. At PKCβI(h), the “percent activity of PKCβI(h)” value is 119%.
